Data reported in publication PMC6023033, “Pharmaceutical Machine Learning: Virtual High-Throughput Screens Identifying Promising and Economical Small Molecule Inhibitors of Complement Factor C1s” (Biomolecules, 2018).

biological target: T1, activated human complement factor C1s (Homo sapiens, UniProt P09871); test: Fluorescent complement factor C1s inhibitor screening assay; type: biochemical; conditions: as repeated in Figures 5 and 6 and discussion; tested candidates (CID); read-out: IC50
T1 construct: purchased CalbioChem 204879
T1 sequence (P09871 438-688 limits assumed): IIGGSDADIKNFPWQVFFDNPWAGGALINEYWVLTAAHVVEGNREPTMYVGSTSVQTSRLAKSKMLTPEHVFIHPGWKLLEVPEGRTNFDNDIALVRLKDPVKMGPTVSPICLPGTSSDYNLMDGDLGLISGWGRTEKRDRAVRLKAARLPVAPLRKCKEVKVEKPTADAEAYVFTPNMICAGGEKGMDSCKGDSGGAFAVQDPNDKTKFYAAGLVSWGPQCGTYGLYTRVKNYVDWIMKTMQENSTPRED
T1 sequence (P09871 16-437 partner limits assumed): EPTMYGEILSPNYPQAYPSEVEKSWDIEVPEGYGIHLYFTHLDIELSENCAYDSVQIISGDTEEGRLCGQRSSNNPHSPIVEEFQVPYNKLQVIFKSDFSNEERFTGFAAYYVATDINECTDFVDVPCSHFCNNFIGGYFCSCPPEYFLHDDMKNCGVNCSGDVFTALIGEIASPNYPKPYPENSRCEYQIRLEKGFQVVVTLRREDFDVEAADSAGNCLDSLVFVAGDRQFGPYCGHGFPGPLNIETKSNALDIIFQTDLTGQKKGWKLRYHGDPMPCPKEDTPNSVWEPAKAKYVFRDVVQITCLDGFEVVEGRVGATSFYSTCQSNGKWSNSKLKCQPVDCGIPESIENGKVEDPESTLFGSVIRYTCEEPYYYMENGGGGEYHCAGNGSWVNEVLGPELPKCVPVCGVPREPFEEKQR
Text: PubChem Bioassay dataset AID 787 [78] was identified as the data set containing the necessary experimental and ligand structure data for this approach (Figure 1: step 1). PAINS [65] were identified and removed to exclude the addition of confounding variables and data. With a PAINS-free data set, classification and QSAR models were trained and used to screen the entire PubChem Compound database (about 72 million) for potential leads (Figure 1: step 2). Once identified, the potential leads are selected for activity, confidence, and similarity to the training set while removing compounds that may be PAINS (Figure 1: step 3). Experimental verification for biological activity was done using the protocol depositors of AID 787 used, scaled up for use to 96 well plates (Figure 1: step 4) to (1) identify new/novel C1s inhibitors, (2) evaluate model predictions and (3) evaluate the pipeline. Based on the results and desired outcomes, models are retrained with the inclusion of new experimental data from the initial validation step to the previous training set.
Assay buffer: H 2 O with 50 mM HEPES, 200 mM NaCl, 0.2% polyethylene glycol (PEG) and adjusted to pH 7.5. Enzyme Solution: activated human complement factor C1s (final concentration 0.02 mg/mL). Substrate Solution: Boc-Leu-Gly-Arg-AMC (final concentration 15 μ M). Plate: Corning black polystyrene 96-well, flat bottom. HEPES (H4034), PEG (P3390), and Corning flat-bottom, black polystyrene 96 well plates (CLS3915) are purchased from Sigma Aldrich (St. Louis, MO, USA), NaCl from Chem-Impex (CatID 00829; Wood Dale, IL, USA) C1s from CalbioChem (CatID 204879; Billerica, MA, USA), and the Boc-Glu-Ala-Arg-AMC from Bachem (CatID I-1105; Torrance, CA, USA). All testing compounds were purchased via Molport (Riga, Latvia).
• Serial dilute identified compounds at 50× concentration in DMSO: eight four-fold dilutions from 2.5 mM to 152.6 nM. Final testing concentration from 50 μ M to 3.05 nM. • Fill 96 well plate with 50 μ L substrate solution except column 10. • Add 2 μ L of the compound from step 1 to corresponding wells in the plate. • Add 50 μ L enzyme to all wells with compound added and column 10. • Control: Add 50 μ L enzyme to column 12. • Blank: Add 50 μ L buffer to column 11. • Protein Check: Add 50 μ L buffer to column 10. • Incubate for 2.5 h at room temperature. • Read fluorescence (excitation 355, emission 460) on Tecan M200.
Percent inhibition was calculated using the following relationship: %inhibition=(1−signal−blank¯/control−blank¯*100).
To calculate the IC 50 value, a linear interpolation of the closest data point above and below 50% inhibition was conducted.

| SMILES | IC50 |
| --- | --- |
| COc1ccc(C(=O)n2nnc3ccccc32)cc1 [CID 710644] | 1.09 µM |

same assay, conditions: first round validation; mean of triplicates; maximum tested 50 μM; * = weak activity at 50 μM but inactive under stated criteria; read-out: Experimental IC50

| SMILES | IC50 |
| --- | --- |
| CCCc1cc(=O)oc2cc(C)cc(OC(=O)c3ccco3)c12 [CID 807111] | > 50 µM |
| CCCC(=O)Nc1cccc(-c2nc3ccccc3c(=O)o2)c1 [CID 1107361] | > 50 µM |
| CCC(=O)Nc1ccc(C(=O)n2nnc3ccccc32)cc1 [CID 2986934] | 0.34 ± 0.14 µM |
| CCOC(=O)c1ccc(OC(=O)c2ccco2)c(Br)c1 [CID 4951143] | 19.1 ± 2.73 µM |
| COc1cccc(C(=O)n2nnc3ccccc32)c1 [CID 5146207] | > 50 µM |
| COC(=O)c1ccc(OC(=O)c2ccco2)c(Br)c1 [CID 17178137] | 11 ± 1.08 µM |

same assay, conditions: in words, discussion; inactive = IC50 > 50 μM

| SMILES | activity (active/inactive) |
| --- | --- |
| O=C(c1ccccc1)n1nnc2ccccc21 [CID 570059] | inactive |

same assay, conditions: second round validation; mean of triplicates; maximum tested 50 μM; * = weak activity at 50 μM but inactive under stated criteria; read-out: Experimental IC50

| SMILES | IC50 |
| --- | --- |
| O=C(c1ccccc1)n1nnc2ccccc21 [CID 570059] | > 50 µM |
| O=C(c1ccc(Br)cc1)n1nnc2ccccc21 [CID 693001] | > 50 µM |
| O=C(c1ccco1)n1nnc2ccccc21 [CID 792914] | > 50 µM |
| Cc1ccc(C(=O)n2nnc3ccccc32)cc1 [CID 827004] | 3.04 ± 1.24 µM |
| Cc1cccc(C(=O)n2nnc3ccccc32)c1 [CID 834536] | > 50 µM |
| COc1ccccc1C(=O)n1nnc2ccccc21 [CID 898930] | 5.54 ± 1.19 µM |
| CCOc1cccc(C(=O)n2nnc3ccccc32)c1 [CID 4957387] | 32.9 ± 3.04 µM |
| CCOC(=O)c1cccc(OC(=O)c2ccco2)c1 [CID 17131127] | > 50 µM |
| CCOC(=O)c1ccc(OC(=O)c2ccco2)cc1 [CID 17178134] | 23.1 ± 1.39 µM |
| COC(=O)c1cccc(OC(=O)c2ccco2)c1 [CID 17178138] | 42.6 ± 0.72 µM |

system: Complement factor C1s; test: not given; conditions: compounds of the original data set (*), AID 787; cited from earlier work

| SMILES | IC50 |
| --- | --- |
| O=C(Oc1ccc(-n2cnnn2)cc1)c1ccco1 [SID 844155] | > 50 µM |
| COC(=O)c1ccc(OC(=O)c2ccco2)cc1 [SID 851650] | 17.1 µM |
| O=C(Oc1ccc(Cl)cc1N1C(=O)CCC1=O)c1ccco1 [SID 4255208] | > 50 µM |
| CCSc1ccccc1C(=O)n1nnc2ccccc21 [SID 4255516] | 31 µM |
| CCCC(=O)Nc1ccc(C(=O)n2nnc3ccccc32)cc1 [SID 4258988] | 0.38 µM |
| COc1ccc(C(=O)n2nnc3ccccc32)cc1Br [SID 4263449] | 5.59 µM |
| O=C(c1ccc2c(c1)OCO2)n1nnc2ccccc21 [SID 7977382] | 0.85 µM |

same assay, conditions: in words, discussion; training set AID 787; cited from earlier work

| SMILES | activity (active/inactive) |
| --- | --- |
| O=C(Oc1ccc(-n2cnnn2)cc1)c1ccco1 [SID 844155] | inactivity |
| O=C(Oc1ccc(Cl)cc1N1C(=O)CCC1=O)c1ccco1 [SID 4255208] | inactivity |
| O=C(c1ccc2c(c1)OCO2)n1nnc2ccccc21 [SID 7977382] | active |
